Experimental data from PMC3275754, “Pregnenolone sulphate-independent inhibition of TRPM3 channels by progesterone” (Cell Calcium, 2012).

What was measured:
Type in all cases: cell-based
[1] = biological target: T1, Transient Receptor Potential Melastatin 3 (TRPM3) (Homo sapiens, UniProt Q9HCF6); assay: Ca2+ measurement and whole-cell patch-clamp inhibition; steroid overlay binding of TRPM3-YFP lysate; parameters: human TRPM3 expressed in HEK 293 cells; TRPM3-YFP for overlay
[2] = biological target: T1, Transient Receptor Potential Melastatin 3 (TRPM3); assay: Overlay binding assay with lysate of HEK […] cells expressing TRPM3-YFP; parameters: human TRPM3 tagged with YFP
[3] = biological target: T1, Transient Receptor Potential Melastatin 3 (TRPM3); assay: Ca2+ measurement; […] inhibits PregS-evoked but not nifedipine-evoked TRPM3 activity; parameters: human TRPM3 expressed in HEK 293 cells

T1 sequence (Q9HCF6 whole entry): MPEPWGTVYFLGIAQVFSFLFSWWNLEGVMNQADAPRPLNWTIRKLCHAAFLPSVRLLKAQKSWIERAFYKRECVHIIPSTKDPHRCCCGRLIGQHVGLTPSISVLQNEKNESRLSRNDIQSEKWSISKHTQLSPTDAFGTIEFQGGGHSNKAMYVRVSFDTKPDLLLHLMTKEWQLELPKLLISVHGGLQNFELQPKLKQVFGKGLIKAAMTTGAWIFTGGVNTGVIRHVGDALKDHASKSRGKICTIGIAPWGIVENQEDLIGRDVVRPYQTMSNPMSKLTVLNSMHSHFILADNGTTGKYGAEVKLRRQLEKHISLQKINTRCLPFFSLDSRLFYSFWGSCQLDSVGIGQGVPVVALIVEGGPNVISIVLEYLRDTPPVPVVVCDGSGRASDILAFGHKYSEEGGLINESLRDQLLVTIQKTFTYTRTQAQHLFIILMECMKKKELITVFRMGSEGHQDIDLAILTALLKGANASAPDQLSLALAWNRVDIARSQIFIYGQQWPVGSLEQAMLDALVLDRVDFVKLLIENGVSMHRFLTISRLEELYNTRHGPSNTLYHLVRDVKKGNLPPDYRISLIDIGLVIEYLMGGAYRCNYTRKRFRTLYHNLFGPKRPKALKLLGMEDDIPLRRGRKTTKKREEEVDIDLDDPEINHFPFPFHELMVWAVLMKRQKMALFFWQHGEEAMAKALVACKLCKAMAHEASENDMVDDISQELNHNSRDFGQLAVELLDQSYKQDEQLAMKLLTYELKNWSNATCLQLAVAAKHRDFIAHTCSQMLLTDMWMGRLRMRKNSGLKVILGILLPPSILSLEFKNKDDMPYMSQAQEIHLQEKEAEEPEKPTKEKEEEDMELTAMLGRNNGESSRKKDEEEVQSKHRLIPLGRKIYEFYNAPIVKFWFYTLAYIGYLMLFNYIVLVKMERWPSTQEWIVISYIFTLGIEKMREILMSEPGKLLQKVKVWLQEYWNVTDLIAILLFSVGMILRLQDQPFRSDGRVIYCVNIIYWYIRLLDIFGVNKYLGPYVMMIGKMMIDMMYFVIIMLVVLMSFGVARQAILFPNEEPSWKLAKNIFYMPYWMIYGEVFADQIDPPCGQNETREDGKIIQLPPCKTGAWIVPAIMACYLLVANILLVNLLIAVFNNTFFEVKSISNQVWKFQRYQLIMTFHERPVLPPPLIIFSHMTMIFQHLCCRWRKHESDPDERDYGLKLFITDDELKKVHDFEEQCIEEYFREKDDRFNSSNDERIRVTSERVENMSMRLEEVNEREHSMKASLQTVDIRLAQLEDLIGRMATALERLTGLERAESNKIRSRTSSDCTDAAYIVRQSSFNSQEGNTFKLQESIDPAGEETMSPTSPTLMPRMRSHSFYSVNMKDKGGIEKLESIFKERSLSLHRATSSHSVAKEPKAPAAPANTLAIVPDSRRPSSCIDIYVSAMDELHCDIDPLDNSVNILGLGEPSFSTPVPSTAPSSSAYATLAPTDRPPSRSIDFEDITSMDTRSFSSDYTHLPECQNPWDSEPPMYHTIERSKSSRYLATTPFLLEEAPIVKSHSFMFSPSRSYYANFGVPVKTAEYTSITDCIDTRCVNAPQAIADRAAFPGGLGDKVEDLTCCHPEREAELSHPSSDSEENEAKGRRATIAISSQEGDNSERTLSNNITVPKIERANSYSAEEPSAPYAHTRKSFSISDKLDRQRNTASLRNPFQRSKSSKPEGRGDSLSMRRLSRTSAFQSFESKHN

For `CC(=O)[C@H]1CC[C@H]2[C@@H]3CCC4=CC(=O)CC[C@]4(C)[C@H]3CC[C@]12C` [prog, progesterone], the “Ca2+ measurement and whole-cell patch-clamp inhibition; steroid overlay binding” value [1] was “TRPM3 bound to pregnenolone sulphate, progesterone, nifedipine, dihydrotestosterone and cholesterol”.
For `CC(C)CCC[C@@H](C)[C@H]1CC[C@H]2[C@@H]3CC=C4C[C@@H](O)CC[C@]4(C)[C@H]3CC[C@]12C` [cholesterol], the “Overlay binding assay with lysate of HEK 293 cells expressing TRPM3-YFP” value [2] was “TRPM3 bound to pregnenolone sulphate, progesterone, nifedipine, dihydrotestosterone and cholesterol”.
In the case of `CS(=O)(=O)c1ccc(C(=O)Nc2ccc(N3CCCC3)cc2)c(Cl)c1` [2-CMNPBC, 2-chloro-4-(methylsulphonyl)-N-[4-(1 pyrrolidinyl)phenyl]benzenecarboxamide], the “Ca2+ measurement; 10 μM inhibits PregS-evoked but not nifedipine-evoked TRPM3 ac” value [3] is reported as “(2-CMNPBC, Fig. 9a), which also inhibited pregnenolone sulphate-evoked TRPM3 activity”.
